ChEMBL document CHEMBL1129018, “Asymmetric synthesis of cis-()-(2R4S)-4-(phosphonomethyl)-2-piperidinecarboxylic acid, a potent NMDA receptor antagonist” (Bioorg Med Chem Lett, 1996)

Assay: Compound was tested for binding activity against N-methyl-D-aspartic acid(NMDA) receptor in rat brain crude synaptic membranes
Format: cell membranes

IC50 [nM]	SMILES
10000	O=C(O)[C@@H]1C[C@H](CP(=O)(O)O)CCN1 (stereo in doubt) [SELFOTEL]
69	O=C(O)[C@@H]1C[C@H](CP(=O)(O)O)CCN1 (stereo in doubt; form 1) [SELFOTEL]
29	O=C(O)[C@@H]1C[C@H](CP(=O)(O)O)CCN1 (stereo in doubt; form 2) [SELFOTEL]
